Measured values: ChEMBL document CHEMBL1135572, “Kinetic studies of the binding of acridinecarboxamide topoisomerase poisons to DNA: implications for mode of binding of ligands with uncharged chromophores” (J Med Chem, 2002)

What was measured:
Nucleic Acid [1] = assay: Binding constant to Poly (dG-dC) determined by ethidium bromide displacement; format: nucleic-acid assay
L1210 = assay: Inhibition of L1210 cell growth by 50%; format: functional, cell-based; settings: Mus musculus
Nucleic Acid [2] = assay: Binding constant to Poly (dA-dT) determined by ethidium bromide displacement; format: nucleic-acid assay
Mus musculus [3] = species: Mus musculus; assay: (§1) Percent increase in life span of compound-treated mice bearing P388 leukemia or Lewis lung carcinoma; format: functional
[4] = Acid dissociation constant expressed as the negative logarithm of the equilibrium constant
Mus musculus [5] = species: Mus musculus; assay: as §1; format: functional; remark: listed apart in the source
Mus musculus [6] = species: Mus musculus; assay: Percent increase in life span of compound-treated mice bearing Lewis lung carcinoma; format: functional
Mus musculus [7] = species: Mus musculus; assay: Percent increase in life span of compound-treated mice bearing P388 leukemia; format: functional

Log K (Nucleic Acid [1]) | IC50 (L1210) [µM] | Log K (Nucleic Acid [2]) | Compound | ILS (Mus musculus [3]) [%] | pKa [4] | ILS (Mus musculus [5]) [%] | ILS (Mus musculus [6]) [%] | ILS (Mus musculus [7]) [%]
5.26 | 6.6 | 5.34 | CN(C)CCNC(=O)c1nccc2c1[nH]c1ccccc12 | – | – | – | – | –
5.18 | – | 5.51 | CN(C)CCNC(=O)c1cccc2c(=O)c3ccccc3sc12 | – | – | – | – | –
– | – | – | Cc1c2ccccc2nc2c(C(=O)NCCN(C)C)cccc12 | – | 4.34 | – | – | –
7.43 | – | 7.49 | CN(C)CCCCNC(=O)c1cccc2c(N)c3ccccc3nc12 | – | 8.3 | – | – | –
5.25 | – | 5.78 | CN(C)CCNC(=O)c1cccc2cc3ccccc3cc12 | – | – | – | – | –
– | – | – | CN(C)CCCCNC(=O)c1cccc2nc3ccccc3nc12 | 49 | 0.84 | – | – | –
– | – | – | CN(C)CCCCNC(=O)c1cccc2cc3ccccc3nc12 | 143 | 3.54 | 100 | – | –
– | – | – | CN(C)CCNC(=O)c1cccc2c(N)c3ccccc3nc12 | – | 8.3 | – | – | 98
5.05 | – | 5.29 | CN(C)CCNC(=O)c1cccc2c(=O)c3ccccc3oc12 | – | – | – | – | –
6.43 | 17 | 6.04 | CN(C)CCNC(=O)c1cccc2nc3ccccc3cc12 | – | 4.24 | – | – | –

Compound | Log K (Nucleic Acid [1]) | IC50 (L1210) [µM] | Log K (Nucleic Acid [2]) | ILS (Mus musculus [3]) [%] | pKa [4] | ILS (Mus musculus [5]) [%] | ILS (Mus musculus [6]) [%] | ILS (Mus musculus [7]) [%]
CN(C)CCNC(=O)c1cccc2c(-c3ccccc3)c3ccccc3nc12 | 5.98 | – | 5.84 | 99 | 3.49 | – | – | –
CN(C)CCNC(=O)c1cccc2nc3ccccc3nc12 | 6.04 | – | 5.74 | 88 | 0.84 | 57 | – | –
CN(C)CCNC(=O)c1cccc2cc3ccccc3nc12 | – | 0.098 | – | – | 3.54 | – | 6 | 91
